Test results from patent US7977348B2, “Polymorphic forms of imatinib mesylate and processes for preparation of novel crystalline forms as well as amorphous and form α” (Sicor Inc., priority 2006, dated 2011).

Columns and labels:
[1] = Tablet pressing followed by PXRD analysis of the solid form; format: physicochemical; settings: 200 mg tablet with 86 mg imatinib mesylate substance and excipients
Description: XRD diffraction was performed on X-Ray powder diffractometer: Philips X'pert Pro powder diffractometer, Cu-tube, scanning parameters: CuKα radiation, λ=1.5418 Å. Continuous scan at a rate of: 0.02° 2theta/0.3 sec.
Form V, having the main PXRD peaks at 9.9, 11.7, 13.3, 16.6, and 22.1±0.2 degrees two-theta, and all the components presented in the below table were weighed together and mixed to obtain a tablet.
Form X, having the main PXRD peaks at 6.0, 8.6, 11.4, 14.2, and 18.3±0.2 degrees two-theta, and all the components presented in the below table were weighed together and mixed to obtain a tablet.
Amorphous Imatinib mesylate and all the components presented in the below table were weighed together and mixed to obtain a tablet.

[2] = Particle size of the crystalline form; format: physicochemical
[3] = Moisture sensitivity / hygroscopicity of the solid phase noted during drying; format: physicochemical; settings: filter cake dried under nitrogen stream
Description: Imatinib base (3 g, 0.0061 mole) was suspended in dry ethanol (60 ml). The suspension was cooled to −40° C. and then an ethanol-solution of methanesulfonic acid (0.591 g in 3.59 ml; 0.0061 mole) was added at once. Exactly after 5 min of stirring at −40° C. the seeding crystal (Form IV, 0.1 g) was put into the suspension. The stirring was maintained for additional 25 minutes in the temperature range from −40° C. to −35° C. Then the suspension was let to stay in freezer at −28° C. for 14 hours. In the course of standing, the major part of crystalline phase was created—important requirement is absence of motion. After standing the suspension was diluted with MTBE (50 ml) and crystalline product was filtered. […] Imatinib mesylate (Form IV) was obtained (3.61 g; yield: 90.1%).
Imatinib base (75 g, 0.152 mole) was placed into double-jacketed glass-reactor and suspended with water-1,3-dioxolane mixture (37.5 ml: 712.5 ml). The content of the reactor was kept (for all the time) under gentle nitrogen stream. The temperature was adjusted at 20° C., undiluted methanesulphonic acid (14.21 g, 0.148 mole) was added (at once or dropwise during a few minutes). The two-phase liquid was stirred cca 50 min at 20° C. […] The drying process was monitored by measuring LOD (loss on drying)—it was finished when LOD reached 11-12%. […]

[4] = Stability of the crystalline form under pressure and under heating; settings: solid form

Row | SMILES | solid form found by PXRD after the tablet was pressed [1] | particle size [2] | hygroscopicity / moisture sensitivity of solid phase [3] | stability under pressure [4] | stable under heating up to a temperature of [4] [°C]
1 | CS(=O)(=O)O.Cc1ccc(NC(=O)c2ccc(CN3CCN(C)CC3)cc2)cc1Nc1nccc(-c2cccnc2)n1 [Amorphous Imatinib mesylate, 4-(4-methylpiperazin-1-ylmethyl)-N-[4-methyl-3-[(4-pyrinin-3-yl)pyrimidin-2-yloamino]phenyl]benzamide mesylate, reference compound] | retaining the amorphous form |  |  |  | 
2 | CS(=O)(=O)O.Cc1ccc(NC(=O)c2ccc(CN3CCN(C)CC3)cc2)cc1Nc1nccc(-c2cccnc2)n1 [Form IV, 4-(4-methylpiperazin-1-ylmethyl)-N-[4-methyl-3-[(4-pyrinin-3-yl)pyrimidin-2-yloamino]phenyl]benzamide mesylate] |  | less than 100 microns | moisture sensitive |  | 
3 | CS(=O)(=O)O.Cc1ccc(NC(=O)c2ccc(CN3CCN(C)CC3)cc2)cc1Nc1nccc(-c2cccnc2)n1 [Form V, 4-(4-methylpiperazin-1-ylmethyl)-N-[4-methyl-3-[(4-pyrinin-3-yl)pyrimidin-2-yloamino]phenyl]benzamide mesylate] | belong to form V |  |  | stable under pressure | ≤ 80
4 | CS(=O)(=O)O.Cc1ccc(NC(=O)c2ccc(CN3CCN(C)CC3)cc2)cc1Nc1nccc(-c2cccnc2)n1 [Form VI, 4-(4-methylpiperazin-1-ylmethyl)-N-[4-methyl-3-[(4-pyrinin-3-yl)pyrimidin-2-yloamino]phenyl]benzamide mesylate] |  | less than 100 microns | very hydroscopic |  | 
5 | CS(=O)(=O)O.Cc1ccc(NC(=O)c2ccc(CN3CCN(C)CC3)cc2)cc1Nc1nccc(-c2cccnc2)n1 [Form VII, 4-(4-methylpiperazin-1-ylmethyl)-N-[4-methyl-3-[(4-pyrinin-3-yl)pyrimidin-2-yloamino]phenyl]benzamide mesylate] |  | less than 100 microns |  |  | 
6 | CS(=O)(=O)O.Cc1ccc(NC(=O)c2ccc(CN3CCN(C)CC3)cc2)cc1Nc1nccc(-c2cccnc2)n1 [Form X, 4-(4-methylpiperazin-1-ylmethyl)-N-[4-methyl-3-[(4-pyrinin-3-yl)pyrimidin-2-yloamino]phenyl]benzamide mesylate] | belong to form X | less than 100 microns |  |  | 
